Values after ≈ are worked out from the molar mass of the structure shown.
Settings: buffer; pH 7.4; 200.0 µM

SMILES | solubility kinetic [µg/mL]
CN1CCN(C(=O)c2cccn(Cc3cccc(Cl)c3)c2=O)CC1 | > 51.9
CC1Cc2ccccc2N1CC(=O)NC(=O)NC1CCCCC1 (configuration not stated) | 24.6 (≈ 78 µM)
CN1C(=O)C(c2ccc([N+](=O)[O-])cc2[N+](=O)[O-])C(=O)N(C)C1=O | > 48.3
Cc1noc(C)c1S(=O)(=O)Nc1ccc(C#N)cc1 | > 41.6
Cc1ccccc1NC(=O)C1COc2ccccc2O1 (configuration not stated) | 32.6 (≈ 121 µM)
Cc1ccc(SCCc2cc[n+](CC(=O)c3ccccc3)cc2)cc1 | 50.8
Cl.O=C(NCc1ccccc1)N1CCNCC1 | > 38.4
COC(=O)[C@H](CCSC)NC(=O)Nc1cccc(C)c1C | 37.1 (≈ 120 µM)
CSc1ncc(C(=O)Nc2ccc(C)cc2C)c(C)n1 | 12.1 (≈ 42.1 µM)
Cc1cnc(=O)[nH]c1SCc1ccccc1F | > 37.5
Cc1cc(CNC(=O)COC(=O)C2CC3CCCC(C2)C3=O)cc(C)c1O (configuration not stated) | > 56
Cc1cc(SCc2cccc(C(F)(F)F)c2)nc(=O)[nH]1 | 26.9 (≈ 89.6 µM)
COc1ccc2[nH]c(=S)cc(C)c2c1 | 8.9 (≈ 43.4 µM)
COc1ccc(C(O)(CCN2CCOCC2)c2ccccc2)cc1 (configuration not stated) | 41.1 (≈ 126 µM)
O=C(CSc1cccc[n+]1[O-])c1ccc(Cl)cc1 | 39.9 (≈ 143 µM)
COc1ccccc1Oc1ncnc2sccc12 | > 38.7
CS(=O)(=O)N1CCC(C(=O)N2CCN(c3ccccc3F)CC2)CC1 | 53.1 (≈ 144 µM)
CCN(CC)c1ccc(CNc2nc3ccccc3n2C(C)C)cc1 | 0.3 (≈ 0.892 µM)
CCN1CCCC1CNC(=O)C(=O)NC(C)c1ccccc1 (configuration not stated) | > 45.5
O=C(NCCOc1ccc(Cl)cc1)c1ccc2c(c1)OCCO2 | 6.3 (≈ 18.9 µM)
CC1=C(C)/C(=N\OS(=O)(=O)c2ccc(C)cc2)C=CC1=O | 3.5 (≈ 11.5 µM)
C/C(Cl)=C/Cn1c(N2CCCC2)nc2c1c(=O)[nH]c(=O)n2C | 45 (≈ 139 µM)
CC1(C)SC[C@H](C(=O)Nc2cccc(Cl)c2)N1C=O | > 44.8
COc1ccc(CCNC(=O)COC(=O)CCC(=O)c2ccc(F)cc2)cc1 | 15.9 (≈ 41 µM)
COc1ccccc1NC(=O)Nc1sccc1-c1nc2ccccc2s1 | 2.8 (≈ 7.34 µM)

SMILES | solubility kinetic [µg/mL]
Cc1ccc(-c2nc(NCCN(C)C)c3ccccc3n2)cc1 | > 46
CCN(CCNC(=O)c1ccc(C#N)cc1)c1cccc(C)c1 | > 46.1
S=C(NCCCCc1ccccc1)NCc1ccccc1 | 7 (≈ 23.5 µM)
CN(C)/C=C1\SC(=S)N(c2ccc(F)cc2)C1=O | 12.6 (≈ 44.6 µM)
Cc1csc(NC(=O)c2cc[n+]([O-])cc2)n1 | > 35.3
CCN(c1ccc(NC(=O)CSc2ccc3c(c2)OCCO3)cc1)C(C)C | 4.4 (≈ 11.4 µM)
Cc1ccc(NC(=O)C(c2ccccc2)c2ccccc2)nc1 | 11.5 (≈ 38 µM)
Cc1ccc(C(=O)CCC(=O)Nc2ccccc2F)cc1 | 4.8 (≈ 16.8 µM)
CC(C)c1ccc(NC(=O)C2CC(=O)N(C3CCCC3)C2)cc1 (configuration not stated) | 36.1 (≈ 115 µM)
CCC(C)c1ccccc1NC(=O)C(C)OC(=O)c1ccco1 (configuration not stated) | > 47.3
COc1ccc(OC)c(N2C(=O)CCCC2=O)c1 | 24.7 (≈ 99.1 µM)
COc1cccc(/C=C/c2ccccn2)c1O | 34 (≈ 150 µM)
CCOc1ccc(NC(=O)CCC(=O)Oc2ccc(C)cc2)cc1 | 19.5 (≈ 59.6 µM)
CC(CCc1ccccc1)NC(=O)c1ccccc1C(=O)O (configuration not stated) | > 44.6
CCC(=O)c1cc(F)ccc1OCC(=O)Nc1ccc2c(c1)OCCO2 | 6.2 (≈ 17.3 µM)
CCOc1ccc(/C=N/NC(=O)Cn2ccnc2C)cc1 | > 42.9
CC(Sc1cccc[n+]1[O-])C(=O)NC1CCCCC1C (configuration not stated) | > 44.2
CCCC[n+]1c(C)sc2cc(OC)ccc21.[I-] | 31.9
COc1ccc(C(=O)NCC(=O)N2CCN(C(=O)c3ccco3)CC2)cc1[N+](=O)[O-] | > 62.5
CC(C)C(=O)Nc1c(-c2ccccc2F)c(=O)c2ccccc2n1C | 49.4 (≈ 146 µM)
O=c1c(-c2ccccc2)c(O)c2ccccc2n1-c1ccccc1 | > 47
Cc1nc2ccccn2c1C(=O)NC1CCCC1 | > 36.5
O=C(NCCc1ccccc1)Oc1ccc(Cl)cc1 | 2.3 (≈ 8.34 µM)
Cc1cc(C(=O)NCc2ccco2)sc1C | > 35.3
NCCc1c(C(=O)O)[nH]c2ccc([N+](=O)[O-])cc12 | 35.4 (≈ 142 µM)

SMILES | solubility kinetic [µg/mL]
COc1ccc2[nH]c(C(=O)Nc3ncc(C)cc3Br)cc2c1 | 6.1 (≈ 16.9 µM)
Cc1ccc(S(=O)(=O)NCC(=O)OCCOc2ccc(Br)cc2)cc1 | 3.8 (≈ 8.87 µM)
CCc1nc2sc3ccccc3c(=O)c2c(=O)n1Cc1ccc(OC)cc1 | 0.8 (≈ 2.11 µM)
Cc1cc(=O)[nH]c(SCc2ccc(Cl)cc2)n1 | 13.2 (≈ 49.5 µM)
CC(Oc1ccc2c(-c3ccccc3)cc(=O)oc2c1)C(=O)N1CCOCC1 (configuration not stated) | > 56.9
Cc1ccc(C(=O)NCC(=O)OCC(=O)c2c(N)n(C)c(=O)n(C)c2=O)cc1C | 7.3 (≈ 18.1 µM)
COc1ccc(OC)c(/C=N/NC(=O)C(O)c2ccccc2)c1 (configuration not stated) | > 47.2
COCC(=O)Nc1cc(C)cn(Cc2ccc(F)cc2)c1=O | > 45.6
Cc1cc(C(=O)NCC(=O)Nc2ccc(F)c(F)c2)c(C)o1 | 11.3 (≈ 36.7 µM)
Cc1ccc(S(=O)(=O)Nc2cccc(Cl)c2)cc1NC(=O)C1CC1 | > 54.7
CCCNC(=O)Nc1nc2ccccc2s1 | 34 (≈ 144 µM)
CN(C(=O)c1ccc(COc2ccccc2Cl)o1)c1ccccc1 | 8.8 (≈ 25.7 µM)
Cc1ccc(OCC(=O)Nc2ccc(Cl)cc2)c([N+](=O)[O-])n1 | 8.7 (≈ 27 µM)
Cn1cnc([N+](=O)[O-])c1SCC(O)CCl (configuration not stated) | 36.5 (≈ 145 µM)
CC(C)(C)c1ccc(C(=O)OCC(=O)NCc2ccco2)cc1 | 39 (≈ 124 µM)
FC(F)(F)c1ccccc1CCN1CCNCC1 | 32.9 (≈ 127 µM)
COC(=O)c1cccc(NC(=S)NC(C)C)c1 | > 37.8
NC(=S)N(c1ccccc1)c1ccccc1 | > 34.2
Cc1cccc(NC(=O)/C(C#N)=C/c2ccc(F)cc2)n1 | 1.5 (≈ 5.33 µM)
O=C(Cc1ccccc1[N+](=O)[O-])Nc1ccccc1C(=O)N1CCOCC1 | > 55.4
S=C(NCc1cccnc1)c1ccccc1 | > 34.2
COc1cccc(NC(=O)CN(C)C(=O)c2ccccn2)c1 | > 44.9
CC(=O)Nc1ccc(OC(=O)N2CCCC2)cc1 | > 37.2
CC(=O)N1c2ccccc2Sc2ccccc21 | 26.4 (≈ 109 µM)
Cn1c(/C=C/c2ccccc2)nc2ccccc21 | 21.9 (≈ 93.5 µM)

SMILES | solubility kinetic [µg/mL]
COc1ccc(N2CCN(C(=O)Cc3ccc(C)cc3)CC2)cc1 | 43.9 (≈ 135 µM)
Cc1cccc(NC(=O)c2cccc(NC(=O)c3ccccc3)c2)n1 | 7.1 (≈ 21.4 µM)
O=C(NC1=NCCS1)c1ccccc1 | 21.4 (≈ 104 µM)
Cc1ccc(SCCC(=O)NCc2ccccn2)cc1 | > 43
COC(=O)C1=C(C)N(CCc2c[nH]c3ccccc23)C(=O)C1 | 42.8 (≈ 143 µM)
COC(=O)c1ccccc1Nc1ccnc(Cl)n1 | 32.1 (≈ 122 µM)
COc1cc(NC(N)=S)c(OC)cc1Cl | > 37
Cc1ccccc1NC(=O)c1cccc(NC(=O)c2c(C(=O)O)cccc2[N+](=O)[O-])c1 | 56.1 (≈ 134 µM)
CCOC(=O)CNC(=O)c1ccc(Br)s1 | > 43.8
CCOc1ccc(S(=O)(=O)N(C)CC(=O)NCc2ccccn2)cc1 | 50.2 (≈ 138 µM)
CCc1ccc(NC(=O)CCc2ccc(CC)o2)cc1 | 4 (≈ 14.7 µM)
CCc1ccc(C(=O)OCC(=O)N2CCCCCC2)cc1 | 14.5 (≈ 50.1 µM)
O=C(c1ccc([N+](=O)[O-])s1)N1CCN(c2ccccn2)CC1 | 42.7 (≈ 134 µM)
O=C(CNS(=O)(=O)c1ccc(F)c(Cl)c1)NCCc1ccccc1 | 5.1 (≈ 13.8 µM)
CCc1ccc(C(=O)N2CCCN(C)CC2)s1 | > 37.9
Cc1cc[n+](C(C)C(=O)c2ccc(Cl)cc2)cc1.[Br-] (configuration not stated) | > 51.1
O=S(=O)(O)c1nc2ccccc2[nH]1 | > 29.7
CCn1c(=O)c2c(nc3n2CCCN3c2cccc(C)c2)n(C)c1=O | 48.3 (≈ 142 µM)
CC(=O)NCCN1C(=O)S/C(=C\c2cccs2)C1=O | > 44.5
Clc1cccc(Sc2ccc(-c3ccccn3)s2)c1 | < 0.7
COc1cccc(N2CN(C3CCCCC3)CNC2=S)c1 | > 45.8
CC1CCCC(NC(=O)C2COc3ccccc3O2)C1C (configuration not stated) | 17.2 (≈ 59.4 µM)
Cc1ccc(-n2nc(C(=O)O)cc2-c2ccccc2Cl)cc1 | > 46.9
COc1ccc(N2C(=O)CC(N3CCCCC3)C2=O)cc1 (configuration not stated) | > 43.3
CCOC(=O)c1cc(NC(=O)c2cccs2)ccc1N1CCOCC1 | 14.8 (≈ 41.1 µM)

SMILES | solubility kinetic [µg/mL]
Cc1cc(NC(=O)COC(=O)c2ccccc2NCCO)no1 | > 47.9
O=C1CCCC2=C1C(c1ccc(O)c(O)c1)Nc1ccc3ccccc3c12 (configuration not stated) | 47.3 (≈ 132 µM)
C=CCNC(=S)Nc1ccc2cn[nH]c2c1 | > 34.8
Cc1ccc(N2C(=O)CC3(CCCC3)CC2=O)cc1 | 34.3 (≈ 133 µM)
C=CCSc1nc(N)cc(=O)[nH]1 | > 27.5
CC1CCc2c(sc(NC(=O)c3cccn3C)c2C(N)=O)C1 (configuration not stated) | 2.9 (≈ 9.14 µM)
O=C(OCC(=O)N1CCCC1=O)c1cccc([N+](=O)[O-])c1 | > 43.8
CC(C)(C)N1CC(C(=O)Nc2ccc(S(N)(=O)=O)cc2)CC1=O (configuration not stated) | > 50.9
Cc1ccc2c(c1)C1(OCCCO1)C(=O)N2 | > 32.9
COc1ccc(-n2c(C)nnc2SCC(=O)NC2CC2)cc1 | > 47.8
CC(C(=O)Nc1ccc(C#N)cc1)N1CCN(C(=O)C2CC2)CC1 (configuration not stated) | > 49
OCCN(CCO)c1ccc2ccccc2c1 | > 34.7
O=C(/C=C/c1ccco1)NCc1ccc2c(c1)OCO2 | > 40.7
Cn1cc(S(=O)(=O)c2ccccc2)n(C)c1=O | 31 (≈ 123 µM)
COc1cccc(C(=O)NCc2ccc3[nH]c(C)cc3c2)c1 | 15.8 (≈ 53.7 µM)
Cc1ccsc1C(=O)N1CCc2ccccc2C1 | > 38.6
COc1ccc(C(=O)NCC(=O)OCC(=O)NCc2ccc3c(c2)OCO3)cc1 | > 60.1
CCSc1nc2sc3c(c2c(=O)n1-c1ccccc1)CCN(C(C)C)C3 | 37 (≈ 96 µM)
COc1cc(C(=O)NCc2cccs2)ccc1OCc1c(C)noc1C | 5.9 (≈ 15.8 µM)
Cc1ccc(NC(=O)c2oc3ccccc3c2C)nc1 | 6.4 (≈ 24 µM)
Cc1c(Cl)ccc(S(=O)(=O)Nc2cccnc2)c1Cl | 5.1 (≈ 16.1 µM)
O=S(=O)(Cc1ccccc1)N(O)c1ccccc1 | 7 (≈ 26.6 µM)
